Where two headings read alike, the source gives them in different places.
How the values were obtained:
[1] = Safety assessment: adverse events and laboratory abnormalities graded by NCI-CTCAE v. 5.0; format: in vivo, human
From the text: Safety analyses included all 14 patients who received at least one dose of lurbinectedin (Part A, n = 3; Part B, n = 11). Thirteen of the fourteen treated patients (three in Part A and ten in Part B) received itraconazole plus lurbinectedin in Cycles 1 or 2, and all fourteen treated patients (three in Part A and 11 in Part B) received lurbinectedin alone in Cycles 1, 2, or 3.
(§1) The study consisted of two parts.
Safety evaluations included assessments of AEs, clinical laboratory tests, deaths, vital signs measurements, and physical examinations. TEAEs were defined as any AE that worsened in severity from baseline or having their onset between the first dose of the study drug and 31 days (±10 days) after the last dose, death, or date of further therapy. AEs were coded based on the Medical Dictionary for Regulatory Activities (MedDRA) v. 23.0 and graded as per the National Cancer Institute–Common Terminology Criteria for Adverse Events (NCI-CTCAE) v. 5.0.

[2] = Unbound plasma lurbinectedin pharmacokinetics with and without itraconazole (phase Ib drug-drug interaction study); format: in vivo, human
From the text: as §1

[3] = cited from earlier work
[4] = cited from earlier work; remark: listed apart in the source
[5] = test system: cytochrome P450 (CYP) 3A; details: based on in vitro studies; cited from earlier work
[6] = Total plasma lurbinectedin pharmacokinetics with and without itraconazole (phase Ib drug-drug interaction study); format: in vivo, human
From the text: as §1

[7] = set-up: method as in PMID 24563480; details: 1.3 mg/m^2 over 1 h without CYP3A4 inhibitors; cited from earlier work
[8] = Part A (LRB 0.8 mg/m^2 with ITZ, 3.2 mg/m^2 alone), all grades
[9] = Part A (LRB 0.8 mg/m^2 with ITZ, 3.2 mg/m^2 alone), grade 3
[10] = Part A (LRB 0.8 mg/m^2 with ITZ, 3.2 mg/m^2 alone), grade 4
[11] = Part B (LRB 0.9 mg/m^2 with ITZ, 3.2 mg/m^2 alone), all grades
[12] = Part B (LRB 0.9 mg/m^2 with ITZ, 3.2 mg/m^2 alone), grade 3
[13] = Part B (LRB 0.9 mg/m^2 with ITZ, 3.2 mg/m^2 alone), grade 4
[14] = co-administration with itraconazole compared to lurbinectedin alone
[15] = unbound plasma lurbinectedin, Test n = 5, Reference n = 8
[16] = co-administration with itraconazole compared to lurbinectedin alone, listed as LRB
[17] = co-administration with multiple oral doses of itraconazole
[18] = total plasma lurbinectedin, n = 8 patients per treatment

COc1ccc2[nH]c3c(c2c1)CCN[C@]31CS[C@@H]2c3c(OC(C)=O)c(C)c4c(c3[C@H](COC1=O)N1[C@@H]2[C@H]2c3c(cc(C)c(OC)c3O)C[C@@H]([C@@H]1O)N2C)OCO4 [lurbinectedin]
Tolerability ([1]; 0.9 mg/m^2 1 h IV infusion Day 1 q3wk with itraconazole): well tolerated | ALT increased (biochemical laboratory abnormality, regardless of relationship) [1, 8]: 1 (33) n (%) of patients | Anemia (hematological laboratory abnormality, regardless of relationship) [1, 8]: 3 (100) n (%) of patients | Constipation (treatment-related AE) [1, 8]: 1 (33) n (%) of patients | GGT increased (biochemical laboratory abnormality, regardless of relationship) [1, 8]: 1 (33) n (%) of patients | Leukopenia (hematological laboratory abnormality, regardless of relationship) [1, 8]: 3 (100) n (%) of patients | Lymphopenia (hematological laboratory abnormality, regardless of relationship) [1, 8]: 3 (100) n (%) of patients | Neutropenia (hematological laboratory abnormality, regardless of relationship) [1, 8]: 2 (67) n (%) of patients | Thrombocytopenia (hematological laboratory abnormality, regardless of relationship) [1, 8]: 2 (67) n (%) of patients | Vomiting (treatment-related AE) [1, 8]: 1 (33) n (%) of patients | ALT increased (biochemical laboratory abnormality, regardless of relationship) [1, 9]: 1 (33) n (%) of patients | Leukopenia (hematological laboratory abnormality, regardless of relationship) [1, 9]: 1 (33) n (%) of patients | Lymphopenia (hematological laboratory abnormality, regardless of relationship) [1, 9]: 1 (33) n (%) of patients | Leukopenia (hematological laboratory abnormality, regardless of relationship) [1, 10]: 1 (33) n (%) of patients | Neutropenia (hematological laboratory abnormality, regardless of relationship) [1, 10]: 2 (67) n (%) of patients | Bone pain (treatment-emergent AE, regardless of relationship) ([1]; Part A, all grades): 1 (33) n (%) of patients | Constipation (treatment-emergent AE, regardless of relationship) ([1]; Part A, all grades): 1 (33) n (%) of patients | Dysgeusia (treatment-emergent AE, regardless of relationship) ([1]; Part A, all grades): 1 (33) n (%) of patients | Fatigue (treatment-emergent AE, regardless of relationship) ([1]; Part A, all grades): 1 (33) n (%) of patients | Pleural effusion (treatment-emergent AE, regardless of relationship) ([1]; Part A, all grades): 1 (33) n (%) of patients | Vomiting (treatment-emergent AE, regardless of relationship) ([1]; Part A, all grades): 1 (33) n (%) of patients | Pleural effusion (treatment-emergent AE, regardless of relationship) ([1]; Part A, grade 3): 1 (33) n (%) of patients | ALT increased (biochemical laboratory abnormality, regardless of relationship) [1, 11]: 9 (82) n (%) of patients | Acute kidney injury (treatment-related AE) [1, 11]: 1 (9) n (%) of patients | Anemia (hematological laboratory abnormality, regardless of relationship) [1, 11]: 9 (82) n (%) of patients | CPK increased (biochemical laboratory abnormality, regardless of relationship) [1, 11]: 1 (9) n (%) of patients | Fatigue (treatment-related AE) [1, 11]: 2 (18) n (%) of patients | GGT increased (biochemical laboratory abnormality, regardless of relationship) [1, 11]: 4 (36) n (%) of patients | Leukopenia (hematological laboratory abnormality, regardless of relationship) [1, 11]: 8 (73) n (%) of patients | Lymphopenia (hematological laboratory abnormality, regardless of relationship) [1, 11]: 9 (82) n (%) of patients | Nausea (treatment-related AE) [1, 11]: 5 (45) n (%) of patients | Neutropenia (hematological laboratory abnormality, regardless of relationship) [1, 11]: 8 (73) n (%) of patients | Rhabdomyolysis (treatment-related AE) [1, 11]: 1 (9) n (%) of patients | Thrombocytopenia (hematological laboratory abnormality, regardless of relationship) [1, 11]: 8 (73) n (%) of patients | Vomiting (treatment-related AE) [1, 11]: 3 (27) n (%) of patients | Acute kidney injury (treatment-related AE) [1, 12]: 1 (9) n (%) of patients | Anemia (hematological laboratory abnormality, regardless of relationship) [1, 12]: 1 (9) n (%) of patients | GGT increased (biochemical laboratory abnormality, regardless of relationship) [1, 12]: 1 (9) n (%) of patients | Leukopenia (hematological laboratory abnormality, regardless of relationship) [1, 12]: 5 (45) n (%) of patients | Lymphopenia (hematological laboratory abnormality, regardless of relationship) [1, 12]: 2 (18) n (%) of patients | Neutropenia (hematological laboratory abnormality, regardless of relationship) [1, 12]: 5 (45) n (%) of patients | Rhabdomyolysis (treatment-related AE) [1, 12]: 1 (9) n (%) of patients | Vomiting (treatment-related AE) [1, 12]: 1 (9) n (%) of patients | CPK increased (biochemical laboratory abnormality, regardless of relationship) [1, 13]: 1 (9) n (%) of patients | Leukopenia (hematological laboratory abnormality, regardless of relationship) [1, 13]: 1 (9) n (%) of patients | Lymphopenia (hematological laboratory abnormality, regardless of relationship) [1, 13]: 1 (9) n (%) of patients | Neutropenia (hematological laboratory abnormality, regardless of relationship) [1, 13]: 3 (27) n (%) of patients | Thrombocytopenia (hematological laboratory abnormality, regardless of relationship) [1, 13]: 1 (9) n (%) of patients | Acute kidney injury (treatment-emergent AE, regardless of relationship) ([1]; Part B, all grades): 1 (9) n (%) of patients | Deep vein thrombosis (treatment-emergent AE, regardless of relationship) ([1]; Part B, all grades): 1 (9) n (%) of patients | Diarrhea (treatment-emergent AE, regardless of relationship) ([1]; Part B, all grades): 1 (9) n (%) of patients | Fatigue (treatment-emergent AE, regardless of relationship) ([1]; Part B, all grades): 2 (18) n (%) of patients | Intestinal pseudo-obstruction (treatment-emergent AE, regardless of relationship) ([1]; Part B, all grades): 1 (9) n (%) of patients | Nausea (treatment-emergent AE, regardless of relationship) ([1]; Part B, all grades): 5 (45) n (%) of patients | Respiratory failure (treatment-emergent AE, regardless of relationship) ([1]; Part B, all grades): 1 (9) n (%) of patients | Rhabdomyolysis (treatment-emergent AE, regardless of relationship) ([1]; Part B, all grades): 1 (9) n (%) of patients | Small intestinal obstruction (treatment-emergent AE, regardless of relationship) ([1]; Part B, all grades): 1 (9) n (%) of patients | Stomatitis (treatment-emergent AE, regardless of relationship) ([1]; Part B, all grades): 1 (9) n (%) of patients | Vomiting (treatment-emergent AE, regardless of relationship) ([1]; Part B, all grades): 3 (27) n (%) of patients | Acute kidney injury (treatment-emergent AE, regardless of relationship) ([1]; Part B, grade 3): 1 (9) n (%) of patients | Deep vein thrombosis (treatment-emergent AE, regardless of relationship) ([1]; Part B, grade 3): 1 (9) n (%) of patients | Rhabdomyolysis (treatment-emergent AE, regardless of relationship) ([1]; Part B, grade 3): 1 (9) n (%) of patients | Small intestinal obstruction (treatment-emergent AE, regardless of relationship) ([1]; Part B, grade 3): 1 (9) n (%) of patients | Vomiting (treatment-emergent AE, regardless of relationship) ([1]; Part B, grade 3): 1 (9) n (%) of patients | Patients with lurbinectedin dose reduction due to AEs ([1]; during treatment with lurbinectedin alone (grade 3 ALT increase; grade 4 neutropenia)): Two | Patients who discontinued treatment due to a treatment-related serious AE ([1]; grade 3 rhabdomyolysis, Cycle 2 of Part B (Sequence 1), lurbinectedin alone): one | Decrease of unbound CL [2, 14]: 58% | Increase of unbound AUC0–∞ [2, 14]: 2.4 fold | Unbound t1/2 longer [2, 14]: 2 fold | Vd ([2]; human, intravenous, 3.2 mg/m^2, unbound plasma lurbinectedin, Test n = 5, Reference n = 8, read-out: Unbound Vss, geometric mean (CV%)): 235000 L | half-life ([2]; human, intravenous, 3.2 mg/m^2, unbound plasma lurbinectedin, Test n = 5, Reference n = 8, read-out: Unbound t1/2, geometric mean (CV%) (converted)): 46.6 h | Unbound AUC0–t, dose-normalized, geometric mean (CV%) [2, 15]: 184.55 (57.58) pg·h/mL/mg | Unbound AUC0–∞, dose-normalized, geometric mean (CV%) [2, 15]: 188.84 (56.92) pg·h/mL/mg | Unbound CL, geometric mean (CV%) [2, 15]: 5295.44 (56.92) L/h | Unbound Cmax, dose-normalized, geometric mean (CV%) [2, 15]: 40.03 (21.75) pg/mL/mg | Protein binding [3]: highly protein-bound | Population estimate for total plasma CL ([4]; 1 h IV infusion, single agent or combined): 11.2 L/h | Extraction ratio [4]: 0.19 | Population estimate of apparent volume at steady state [4]: 438 L | Reduction of CL ([4]; co-administration of cytochrome CYP3A inhibitors): 30% | Decrease of mean plasma CL ([4]; concomitant administration of aprepitant (a moderate CYP3A4 inhibitor)): 30% | Blood CL ([4]; corresponding to total plasma CL 11.2 L/h): ~ 17 L/h | Reduction of CL ([4]; high C-reactive protein): 20% | Reduction of CL ([4]; high α-1-acid glycoprotein): 28% | Reduction of CL ([4]; low albumin): 20% | Major clearance (CL) mechanism [5]: metabolism of lurbinectedin by cytochrome P450 (CYP) 3A | Increase of total plasma AUC0–t [6, 14]: approximately 2.4 fold | Increase of total plasma AUC0–∞ [6, 14]: approximately 2.7 fold | Increase of total plasma Cmax [6, 14]: 15% | Increase of total plasma AUC0–t [6, 16]: 2.4 fold | Increase of total plasma AUC0–∞ [6, 16]: 2.7 fold | Prolongation of terminal half-life (t1/2), total plasma [6, 17]: 2.2 fold | Reduction of total plasma CL [6, 17]: 63% | clearance ([6]; human, intravenous, 3.2 mg/m^2, total plasma lurbinectedin, n = 8 patients per treatment, read-out: CL, geometric mean (CV%) (converted)): 158 mL/min | Vd ([6]; human, intravenous, 3.2 mg/m^2, total plasma lurbinectedin, n = 8 patients per treatment, read-out: Vss, geometric mean (CV%)): 419 L | half-life ([6]; human, intravenous, 3.2 mg/m^2, total plasma lurbinectedin, n = 8 patients per treatment, read-out: t1/2, geometric mean (CV%) (converted)): 46.6 h | AUC0–t, dose-normalized, geometric mean (CV%) [6, 18]: 103.4 (78.85) µg·h/L/mg | AUC0–∞, dose-normalized, geometric mean (CV%) [6, 18]: 105.8 (77.37) µg·h/L/mg | Cmax, dose-normalized, geometric mean (CV%) [6, 18]: 22.43 (53.75) µg/L/mg | Time after starting the infusion for which plasma concentrations were measurable [7]: at least 160 h
